Laboratory results: patent US20060194815A1, “Methods and compositions for modulating serum cortisol levels” (priority 2003, published 2006)
“Also recorded” adds a separate entry of the source.

What was measured:
[1] = target: T1, cytochrome P-450SCC (Mus musculus, UniProt Q9QZ82); test: 22R-hydroxycholesterol-induced 20-OH progesterone formation (P-450SCC activity) in Y1 cells; type: cell-based
T1 construct: endogenous in cells; host or cells: Y1 mouse adrenal tumor cells
T1 sequence (Q9QZ82 37-526): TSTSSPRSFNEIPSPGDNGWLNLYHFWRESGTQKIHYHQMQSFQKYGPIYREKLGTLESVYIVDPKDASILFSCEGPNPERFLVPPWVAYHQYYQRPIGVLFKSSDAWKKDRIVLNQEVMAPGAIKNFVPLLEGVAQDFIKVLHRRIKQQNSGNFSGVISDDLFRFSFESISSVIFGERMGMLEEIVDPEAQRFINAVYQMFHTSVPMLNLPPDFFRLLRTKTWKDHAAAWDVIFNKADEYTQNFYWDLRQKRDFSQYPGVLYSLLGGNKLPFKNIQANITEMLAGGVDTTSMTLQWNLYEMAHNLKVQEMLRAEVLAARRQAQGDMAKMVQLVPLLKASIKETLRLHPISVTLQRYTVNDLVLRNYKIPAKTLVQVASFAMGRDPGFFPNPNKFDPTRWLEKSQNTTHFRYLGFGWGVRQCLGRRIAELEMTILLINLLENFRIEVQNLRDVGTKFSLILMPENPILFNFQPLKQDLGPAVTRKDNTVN
Description: Culture media were then changed and cells were stimulated with 1 mM dbcAMP and the treatment for 24 to 48 hours. […] The synthesis of 20-OH progesterone and progesterone in Y1 and MA-10 cell media respectively were measured by RIA (Brown et al., 1992). H295R human adrenal tumor cells were seeded in 48-well plates at 10^5 cells/well and incubated for 24 hours. […] At the end of the incubation time period, cells were treated with 1 mM dbcAMP for 48 hours. Cortisol levels in the media were determined by radioimmunoassay as previously described (Amri et al., 1996).

[2] = target: T2, HMG-CoA reductase (Mus musculus, UniProt Q01237); test: Direct effect on HMG-CoA reductase activity in sonicated Y1 cell homogenates; type: biochemical; settings: control 10.1±0.9
T2 construct: endogenous in cells; host or cells: Y1 mouse adrenal tumor cells (Brij 96 extract; sonicated homogenate for the direct test)
T2 sequence (Q01237 1-887): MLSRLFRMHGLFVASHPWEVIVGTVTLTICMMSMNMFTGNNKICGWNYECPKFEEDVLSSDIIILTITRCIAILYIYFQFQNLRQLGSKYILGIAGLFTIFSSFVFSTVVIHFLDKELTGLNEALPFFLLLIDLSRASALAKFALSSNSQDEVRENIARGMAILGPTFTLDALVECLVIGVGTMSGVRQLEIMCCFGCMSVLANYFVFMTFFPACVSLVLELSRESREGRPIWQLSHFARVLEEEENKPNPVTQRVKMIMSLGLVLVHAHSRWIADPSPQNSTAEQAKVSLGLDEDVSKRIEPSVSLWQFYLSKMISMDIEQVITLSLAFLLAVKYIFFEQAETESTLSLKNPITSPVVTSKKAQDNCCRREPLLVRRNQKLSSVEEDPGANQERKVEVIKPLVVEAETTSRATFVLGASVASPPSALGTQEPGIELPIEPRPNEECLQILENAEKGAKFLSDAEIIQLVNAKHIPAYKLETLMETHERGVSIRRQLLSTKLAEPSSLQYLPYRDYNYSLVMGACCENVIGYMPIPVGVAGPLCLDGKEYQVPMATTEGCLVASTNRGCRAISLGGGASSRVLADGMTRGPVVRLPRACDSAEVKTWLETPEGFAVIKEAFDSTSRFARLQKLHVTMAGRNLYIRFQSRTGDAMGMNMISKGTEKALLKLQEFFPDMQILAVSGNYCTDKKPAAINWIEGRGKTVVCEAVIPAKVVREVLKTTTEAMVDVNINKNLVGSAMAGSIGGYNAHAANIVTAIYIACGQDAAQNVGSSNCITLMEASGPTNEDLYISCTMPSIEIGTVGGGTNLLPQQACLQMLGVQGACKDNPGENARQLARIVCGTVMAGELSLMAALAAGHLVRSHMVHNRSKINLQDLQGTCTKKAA
Description: Cells were washed twice with ice-cold PBS and incubated with ice-cold assay buffer (0.1M sucrose, 40 mM KH2PO4, 30 mM EDTA, 50 mM KCl, 5 mM DTT, 0.25% (v/v) of Brij 96, at pH 7.4) on ice for 20 minutes. After centrifugation for 3 minutes at 14000 g (4° C.) the supernatants were collected and used for HMG-CoA reductase activity assay. The total 150 l assay mixture contained 100-200 g protein and the NADPH-generating system (2.5 mM NADP, 20 mM glucose 6-phosphate and 20 U/ml glucose 6-phosphate dehydrogenase). The reaction was started by adding substrate (^14C-HMG-CoA, 0.1 Ci) and stopped after 45 minutes by adding 10-1 of HCl 6M. ^3H-mevalonolactone was also added to the samples as an extraction recovery marker. After an additional 30 minutes incubation time, to allow complete lactonization of the product, the mixture was centrifuged. The supernatant was applied to Bond-Elut NH2 column and eluted with 1 ml of toluene/acetone (3:1). The eluate was discarded and further 4 ml of toluene/acetone was applied to the column and collected in a scintillation vial for counting ^14C-mevalonate and 3H-mevalonolactone signals (Berkhout et al., 1990).
In separate experiments cells were disrupted by sonication and then treated with procaine. The direct effect of the treatment on HMG-CoA reductase activity in the homogenates was determined as described above.

[3] = test system: HMG-CoA reductase mRNA; test: HMG-CoA reductase mRNA expression by Q-PCR in Y1 cells; type: cell-based, mouse; settings: for dbcAMP-induced HMG-CoA reductase mRNA levels: Y1 cells, 24 hours pretreatment, dbcAMP 24 hours
Description: After treatment, cells were stimulated with 1 mM dbcAMP for 24 hours. At the end of the incubation, total cell RNA was extracted using. RNA STAT-60 (Tel-Test Inc, Friendswood, Tex.) according to the manufacturer's instructions. HMG-CoA reductase mRNA was quantified by Q-PCR using the ABI Prism 7700 sequence detection system (Perlin-Elmer/Applied Biosystems, Foster City, Calif.). RT reaction was performed using TaqMan® Reverse Transcription Reagents with 1 g total RNA and random hexamers as primers for each reaction according to the manufacturer's instructions. For quantifying mouse HMG-CoA reductase mRNA with Q-PCR, the primers were designed according to GenBank Accession Number BC 019782 using PE/AB Primer Express software, which is specifically designed for the selection of primers and probes. The forward primer was 5′-[…]-3′ (22 nucleotides) and reverse primer was 5′-[…]-3′ (23 nucleotides), respectively. The primers were synthesized by Bio-Synthesis Inc. (Lewisville, Tex.). Reactions were performed in a reaction mixture consisting of a 20 l volume solution containing 10 l SYBR® Green PCR Master Mix and 1 l primers mix (5 M each) with 2 l cDNA.

For `CCN(CC)CCOC(=O)c1ccc(N)cc1` [procaine], the “effect of 22R-hydroxycholesterol on steroidogenesis” value [1] was “did not inhibit; also recorded: did not affect”, the “HMG-CoA reductase activity in sonicated cells” value (“HMG-CoA reductase activity” below) ([2]; 1 μM procaine) was 9.9±0.01 pmol/min/mg protein and the “HMG-CoA reductase activity” value ([2]; 10 μM procaine) was 10.3±0.6 pmol/min/mg protein. The “HMG-CoA reductase activity” value ([2]; 100 μM procaine) was 10.1±0.1 pmol/min/mg protein, the “dbcAMP-induced HMG-CoA reductase mRNA levels” value [3] was “reduced in a dose-dependent manner” and the “dbcAMP-induced HMG-CoA reductase mRNA levels” value ([3]; listed as Procaine) was “inhibited in a dose-dependent manner”. The “basal HMG-CoA mRNA levels” value ([3]; no dbcAMP) was “without affecting”.
